Reference: patent US20210403866A1, “ENHANCED DENDRITIC CELL IMMUNE ACTIVATION BY COMBINED INHIBITION OF NR2F6 WITH CANNIBIDIOL” (Regen Biopharma, Inc., priority 2019, published 2021)

Columns and labels:
WT1 mRNA [1] = conditions: mWT1-C1498, compared with DAC treatment; cited from earlier work
[2] = system: murine WT1-transfected C1498 (mWT1-C1498); conditions: increasing doses; cited from earlier work
allogeneic T cells [3] = test: Mixed Lymphocyte Reaction, dendritic cells added to allogeneic T cells, tritiated thymidine; format: cell-based; conditions: cannabidiol 1 and 2 micromolar added to dendritic cells; 40,000 allogeneic T cells; 96 hours culture; FIG. 1
Experimental: (§1) Dendritic cells where added to allogeneic T cells in 96 well plates, wherein allogeneic T cells where added at 40,000 cells per plate and the indicated number of dendritic cells added. Culture was performed for 96 hours with tritiated thymidine added at the last 12 hours of culture at a concentration of 1 microcurie per well. Black bars indicate no cannabidiol added to dendritic cells, striped bars indicate 1 micro Molar and white indicate 2 micromolar. […] Results are shown in graph, FIG. 1.

allogeneic T cells [4] = test: Mixed Lymphocyte Reaction with dendritic cells silenced for NR2F6; format: cell-based; conditions: increased amounts of cannabidiol added to dendritic cells silenced for NR2F6; FIG. 2
Experimental: as §1
MLR was performed as in example 1. All cells where silenced for NR2F6. An increase in allostimulatory activity was observed. Results are shown in graph, FIG. 2.

WT1 mRNA [5] = conditions: human MIAPaCa2 PC cells; cited from earlier work
WT1 mRNA [6] = conditions: GEM-treated MIAPaCa2-bearing SCID mice; cited from earlier work

Nc1ncn([C@@H]2O[C@H](CO)[C@@H](O)[C@H]2O)c(=O)n1 [AZA, azacitidine]
up-regulation of WT1 mRNA (WT1 mRNA [1]): induced up-regulation of mRNA, but not to the same degree as with DAC treatment
number of viable cells [2]: decreased the number of viable cells in a dose- or time-dependent manner

C=C(C)[C@@H]1CCC(C)=C[C@H]1c1c(O)cc(CCCCC)cc1O [cannabidiol]
T cell activation in Mixed Lymphocyte Reaction (allogeneic T cells [3]): dose dependent suppression of T cell activation
allostimulatory activity in MLR (allogeneic T cells [4]): dose dependent increase in allostimulatory activity

Nc1ccn([C@@H]2O[C@H](CO)[C@@H](O)C2(F)F)c(=O)n1 [GEM, gemcitabine]
WT1 mRNA levels (WT1 mRNA [5]): enhanced WT1 mRNA levels
WT1 mRNA in tumor tissue (WT1 mRNA [6]): increase in WT1 mRNA
